Experimental data reported in paper PMC13385394, “Cryo-EM Structure of the TRPC1/5 Heteromer Enables Design of Antidepressant and Anxiolytic Drug with Reduced Side Effects” (Nature Communications, 2026).
Entries after “also recorded” stand apart in the source; their conditions may differ.

Experiments:
TRPC6 homomer = target: T1, TRPC6 homomer (Homo sapiens, UniProt Q9Y210); assay: Whole-cell patch-clamp, inhibition of TRPC6 homomer; assay type: cell-based
T1 construct: expressed in transfected cells
T1 sequence (Q9Y210 1-931): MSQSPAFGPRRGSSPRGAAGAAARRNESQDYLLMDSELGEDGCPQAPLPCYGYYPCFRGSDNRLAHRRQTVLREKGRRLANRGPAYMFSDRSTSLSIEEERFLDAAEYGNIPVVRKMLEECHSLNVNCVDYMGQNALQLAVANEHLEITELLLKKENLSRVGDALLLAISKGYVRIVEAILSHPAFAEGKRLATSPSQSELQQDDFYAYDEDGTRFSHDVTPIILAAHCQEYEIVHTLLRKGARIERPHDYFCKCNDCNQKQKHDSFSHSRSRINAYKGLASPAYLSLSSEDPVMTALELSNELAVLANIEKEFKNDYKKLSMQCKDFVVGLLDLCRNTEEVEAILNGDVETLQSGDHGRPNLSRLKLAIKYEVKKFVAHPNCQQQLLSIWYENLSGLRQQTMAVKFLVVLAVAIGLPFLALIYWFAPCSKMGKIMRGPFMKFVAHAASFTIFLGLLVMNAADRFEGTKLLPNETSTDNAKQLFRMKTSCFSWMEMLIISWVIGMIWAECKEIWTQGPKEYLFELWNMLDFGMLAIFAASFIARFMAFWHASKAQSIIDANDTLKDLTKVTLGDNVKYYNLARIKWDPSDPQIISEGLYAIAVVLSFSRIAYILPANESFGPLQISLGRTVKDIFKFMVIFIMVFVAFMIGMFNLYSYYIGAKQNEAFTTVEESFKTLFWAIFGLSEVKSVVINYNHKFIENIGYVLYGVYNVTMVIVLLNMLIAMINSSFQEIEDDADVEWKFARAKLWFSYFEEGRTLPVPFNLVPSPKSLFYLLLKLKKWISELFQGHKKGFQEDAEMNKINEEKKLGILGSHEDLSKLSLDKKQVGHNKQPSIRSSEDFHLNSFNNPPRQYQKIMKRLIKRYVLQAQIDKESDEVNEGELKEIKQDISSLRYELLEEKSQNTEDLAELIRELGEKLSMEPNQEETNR
Source text: Error bars represent the standard error of the mean (SEM, n = 6 independent
Error bars represent the standard error of the
110 mean (SEM, n = 5 independent cells).

[1] = system: lateral amygdala (LA) neurons; assay: Current-clamp recordings in acute brain slices, CCK-4-induced hyperexcitability; assay type: cell-based, mouse; conditions: ex vivo brain slices
Experimental: Coronal brain slices (300 μm) were prepared from male C57BL/6 J mice (8–10 weeks, Jinan Pengyue Laboratory Animal Breeding Co., Ltd., Jinan, China) and initially incubated in ACSF-1.5 at 32 for 30 min, followed by an additional 1 h at room temperature. Subsequently, slices were transferred to oxygenated artificial cerebrospinal fluid (ACSF) containing the test compound and incubated for 2–3 h before being placed in a recording chamber perfused with ACSF-1.5.
Electrophysiological recordings were performed under an Olympus microscope equipped with a 40× long-working-distance objective. Recording electrodes (3-4 MΩ) were pulled from borosilicate glass capillaries. […] After achieving a gigaseal in voltage-clamp mode at −70 mV and establishing whole-cell configuration with series resistance compensation, recordings were switched to current-clamp mode. Step currents ranging from −60 pA to 300 pA (Δ = 20 pA, 500 ms duration, 3 s interval) were applied to evoke action potentials. […] Intracellular solution (mM): 140 K-gluconate, 2 MgCl₂, 8 KCl, 10 HEPES, 2 Na₂-ATP, 0.2 Na₂-GTP; pH adjusted to 7.2 with KOH.
(d) Quantification of action potential
Data are presented as mean ± SEM (n = 11 neurons

[2] = system: diet-induced obesity (DIO) mice; assay: Diet-induced obesity (DIO) model, body weight and food intake; assay type: in vivo, mouse; conditions: 11 days once daily, HC-070 and JD03-02 10 mg/kg i.g., Semaglutide 0.123 mg/kg s.c.
Experimental: A maximum of five mice were housed per cage during the acclimatization period, and three mice per cage during the experimental period. […] The day of administration was defined as day 1 (D1) of the experiment, with a single dose/day administered for 11 consecutive days. Daily observations were made on the animals’ general condition. Body weight was measured on days 1, 3, 5, 7, 9, and 11 post-administrations. Food intake was measured on days 1, 3, 5, 7, and 9 post-administrations by calculating the difference between the amount of food provided and the amount remaining in the cage, divided by the number of animals in the cage to determine the average food intake per mouse. The cumulative food intake during the experiment was calculated by summing the food intake measurements taken on different days.

Experimental for healthy C57BL/6J mice: The Open-Field test (OFT) was utilized to evaluate the autonomous behavior, exploratory tendencies, and anxiety levels of experimental animals in a new environment. Each mouse was placed at the center of the container and given a 10-min exploration period. Before the test, the animals were acclimated to the experimental setting for 60 min. […] This cleaning procedure aimed to reduce the risk of contamination and prevent any misleading experimental results due to olfactory stimuli. Anxiety levels and exploratory behavior were assessed by measuring the time spent in the central area, the number of entries into the central area, and the total distance traveled by the mice.

Structure (SMILES): CN(C)CCCCn1c(=O)c2c(nc(Oc3cccc(Cl)c3)n2Cc2ccc(Cl)cc2)n(C)c1=O [H08]
- IC50 (TRPC6 homomer): > 10 µM
- inhibition at 10 µM (TRPC6 homomer; 10 μM): 30 to 40%
- inhibition of TRPC6 (TRPC6 homomer; 10 μM): no more than 40%
- effect on CCK-4-induced hyperexcitability of lateral amygdala neurons (in words) [1]: selectively suppresses CCK-4-induced hyperexcitability
- body weight [2]: no significant effect; also recorded: did not affect body weight or food intake
- food intake [2]: no significant effect; also recorded: did not affect body weight or food intake
- OFT total distance traveled (healthy C57BL/6J mice): no significant effect
